The term IC50 denotes the concentration at which inhibition is half-maximal. Low values mean greater potency in that assay, high ones weaker potency in that assay.

Chain of Lp(a) assembly in HepG2 cells overexpressing ApoA protein (P08519 20-2040): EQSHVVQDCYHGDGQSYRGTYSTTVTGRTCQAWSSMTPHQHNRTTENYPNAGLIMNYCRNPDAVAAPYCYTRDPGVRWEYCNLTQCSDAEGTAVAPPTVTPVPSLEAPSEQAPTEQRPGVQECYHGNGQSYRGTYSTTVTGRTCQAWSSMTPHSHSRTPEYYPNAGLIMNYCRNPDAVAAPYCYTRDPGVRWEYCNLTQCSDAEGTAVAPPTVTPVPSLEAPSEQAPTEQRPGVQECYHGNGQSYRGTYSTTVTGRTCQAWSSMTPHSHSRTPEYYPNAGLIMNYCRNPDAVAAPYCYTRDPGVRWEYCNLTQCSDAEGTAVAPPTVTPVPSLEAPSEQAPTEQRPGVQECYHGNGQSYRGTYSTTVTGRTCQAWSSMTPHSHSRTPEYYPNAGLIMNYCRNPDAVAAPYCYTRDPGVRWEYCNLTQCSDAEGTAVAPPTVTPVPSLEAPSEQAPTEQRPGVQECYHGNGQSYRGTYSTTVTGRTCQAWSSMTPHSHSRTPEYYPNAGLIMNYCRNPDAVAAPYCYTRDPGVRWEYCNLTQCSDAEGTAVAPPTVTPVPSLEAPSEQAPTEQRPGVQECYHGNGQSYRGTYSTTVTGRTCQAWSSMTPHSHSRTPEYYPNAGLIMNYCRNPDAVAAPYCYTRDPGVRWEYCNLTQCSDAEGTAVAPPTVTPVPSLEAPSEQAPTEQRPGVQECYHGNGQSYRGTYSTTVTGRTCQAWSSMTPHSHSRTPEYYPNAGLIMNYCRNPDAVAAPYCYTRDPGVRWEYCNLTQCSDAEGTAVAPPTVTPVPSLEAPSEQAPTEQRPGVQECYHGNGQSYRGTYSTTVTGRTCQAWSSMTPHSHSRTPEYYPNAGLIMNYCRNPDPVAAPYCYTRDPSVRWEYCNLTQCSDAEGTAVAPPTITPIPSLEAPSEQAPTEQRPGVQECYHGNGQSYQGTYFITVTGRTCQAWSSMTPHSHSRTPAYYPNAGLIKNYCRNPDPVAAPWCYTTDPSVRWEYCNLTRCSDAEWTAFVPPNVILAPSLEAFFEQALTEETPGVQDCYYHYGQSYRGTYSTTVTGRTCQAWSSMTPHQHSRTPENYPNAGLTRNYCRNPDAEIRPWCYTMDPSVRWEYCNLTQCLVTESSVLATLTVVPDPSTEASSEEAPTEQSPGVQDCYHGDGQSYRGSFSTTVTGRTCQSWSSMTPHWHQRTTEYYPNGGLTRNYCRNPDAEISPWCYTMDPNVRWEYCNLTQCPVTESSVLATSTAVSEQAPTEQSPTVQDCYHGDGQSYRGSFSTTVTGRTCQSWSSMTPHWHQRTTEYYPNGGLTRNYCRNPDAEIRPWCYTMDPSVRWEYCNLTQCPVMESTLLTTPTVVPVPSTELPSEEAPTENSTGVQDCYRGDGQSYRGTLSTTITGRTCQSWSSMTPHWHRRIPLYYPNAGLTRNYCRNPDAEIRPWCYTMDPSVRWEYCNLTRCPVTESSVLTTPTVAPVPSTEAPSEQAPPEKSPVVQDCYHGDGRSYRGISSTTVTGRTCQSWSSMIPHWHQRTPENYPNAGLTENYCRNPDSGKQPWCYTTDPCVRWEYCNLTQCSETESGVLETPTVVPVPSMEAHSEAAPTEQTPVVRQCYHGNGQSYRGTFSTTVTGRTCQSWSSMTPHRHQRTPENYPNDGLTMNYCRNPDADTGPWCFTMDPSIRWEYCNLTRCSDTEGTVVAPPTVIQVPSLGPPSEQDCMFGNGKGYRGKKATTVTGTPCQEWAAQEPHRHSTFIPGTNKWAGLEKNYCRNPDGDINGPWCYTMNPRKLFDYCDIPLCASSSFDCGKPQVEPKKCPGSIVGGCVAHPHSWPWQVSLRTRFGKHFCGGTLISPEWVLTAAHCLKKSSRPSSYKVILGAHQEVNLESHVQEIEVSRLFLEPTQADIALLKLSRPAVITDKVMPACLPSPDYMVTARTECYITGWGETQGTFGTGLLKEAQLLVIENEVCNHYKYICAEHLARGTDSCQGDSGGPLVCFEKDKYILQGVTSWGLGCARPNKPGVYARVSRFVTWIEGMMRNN

The subject of one experiment is serum Lp(a). Nature of the experiment: Humanized mouse Lp(a) inhibition test. It is filed as in vivo, humanized Lp(a) transgenic mouse. The conditions noted are these: 5 mg/kg oral once daily for 3 days, blood 8 h after last dose, humanized Lp(a) mice. As to the method: The in vivo pharmacodynamics of the compounds in reducing Lp(a) was evaluated in a humanized Lp(a) transgenic mouse model. Lp(a) mice were obtained by crossing mice expressing humanized apoB-100 with mice expressing humanized apo(a) containing 16 Kringle repeats. Female mice aged 8-9 weeks were selected for the test. Housing conditions: standard light cycle (12 h light/12 h dark), temperature 20-25° C., humidity 40-70%, free access to water and normal diet. is One day before the test, mice were divided into vehicle control group and test article group (n=5/group) according to body weight and baseline plasma Lp(a) concentration. Mice were orally administered with vehicle (normal saline, 10 mL/kg) or test compound (prepared with normal saline to 3 or 0.5 mg/mL, each mouse received 10 mL/kg), once daily (9:00 am) for 3 consecutive days, and blood was collected to determine the change of serum Lp(a). Eight hours after the last dose, 10 μL of blood was collected from the tail vein and transferred to a 1.5 mL centrifuge tube containing 90 μL of normal saline, mixed well, and left to stand on ice for 30 min. The above samples were centrifuged at 4° C., 3000 rpm for 10 min, and the supernatant was collected and placed on ice. The Lp(a) concentration in the supernatant was measured by double-antibody sandwich ELISA using an anti-apo(a) capture antibody and an HRP-conjugated anti-ApoB detection antibody, with TMB for color development. The reaction was stopped with 1 N sulfuric acid, and the OD value was read at 450 nm on a Tecan microplate reader. Inhibition rate was calculated for each dosing group. Inhibition rate (%)=(vehicle control group Lp(a) concentration or self pre-dose Lp(a) concentration post-dose Lp(a) concentration)/vehicle control group Lp(a) concentration or self pre-dose Lp(a) concentration*100.
As for `O=C(O)[C@@H](Cc1cccc(CCN(CCOc2cccc(C[C@H](C(=O)O)[C@H]3CCNC3)c2)C(=O)Oc2cccc(C[C@H](C(=O)O)[C@H]3CCNC3)c2)c1)[C@H]1CCNC1` [Compound 162, (S)-3-(3-(2-((3-((S)-2-carboxy-2-((R)-pyrrolidin-3-yl)ethyl)phenethyl)((3-((S)-2-carboxy-2-((R)-pyrrolidin-3-yl)ethyl)phenoxy)carbonyl)amino)ethoxy)phenyl)-2-((R)-pyrrolidin-3-yl)propanoic acid], the “Lp(a) Inhibition Rate” value amounted to 79%.

With `O=C(O)[C@@H](Cc1cccc(OCCN(CCOc2cccc(C[C@H](C(=O)O)[C@H]3CCNC3)c2)C(=O)Oc2cccc(C[C@H](C(=O)O)[C@H]3CCNC3)c2)c1)[C@H]1CCNC1` [Compound 163, (2S,2′S)-3,3′-((((((3-((S)-2-carboxy-2-((R)-pyrrolidin-3-yl)ethyl)phenoxy)carbonyl)azanediyl)bis(ethane-2,1-diyl))bis(oxy))bis(3,1-phenylene))bis(2-((R)-pyrrolidin-3-yl)propanoic acid)], the “Lp(a) Inhibition Rate” value is 81%. For the molecule `O=C(O)[C@@H](Cc1cccc(CN(CCOc2cccc(C[C@H](C(=O)O)[C@H]3CCNC3)c2)C(=O)Cc2cc(C[C@H](C(=O)O)[C@H]3CCNC3)cs2)c1)[C@H]1CCNC1` [Compound 178, ((S)-3-(5-(2-((3-((S)-2-carboxy-2-((R)-pyrrolidin-3-yl)ethyl)benzyl)(2-(3-((S)-2-carboxy-2-((R)-pyrrolidin-3-yl)ethyl)phenoxy)ethyl)amino)-2-oxoethyl)thiophen-3-yl)-2-((R)-pyrrolidin-3-yl)propanoic acid)], the “Lp(a) Inhibition Rate” value is 84%.

Consider `O=C(O)[C@@H](Cc1cccc(OCCN(Cc2cc(C[C@H](C(=O)O)[C@H]3CCNC3)cs2)C(=O)Cc2cc(C[C@H](C(=O)O)[C@H]3CCNC3)cs2)c1)[C@H]1CCNC1` [Compound 180, (S)-3-(5-(2-((2-(3-((S)-2-carboxy-2-((R)-pyrrolidin-3-yl)ethyl)phenoxy)ethyl)((4-((S)-2-carboxy-2-((R)-pyrrolidin-3-yl)ethyl)thiophen-2-yl)methyl)amino)-2-oxoethyl)thiophen-3-yl)-2-((R)-pyrrolidin-3-yl)propanoic acid], for which the “Lp(a) Inhibition Rate” value amounted to 80%. Consider `[2H]C([2H])(c1cccc(CC(=O)N(CCOc2cccc(C([2H])([2H])[C@H](C(=O)O)[C@H]3CCNC3)c2)Cc2cccc(C([2H])([2H])[C@H](C(=O)O)[C@H]3CCNC3)c2)c1)[C@H](C(=O)O)[C@H]1CCNC1` [Compound 190, (S)-3-(3-(2-((3-((S)-2-carboxy-2-((R)-pyrrolidin-3-yl)ethyl-1,1-d2)benzyl)(2-(3-((S)-2-carboxy-2-((R)-pyrrolidin-3-yl)ethyl-1,1-d2)phenoxy)ethyl)amino)-2-oxoethyl)phenyl)-2-((R)-pyrrolidin-3-yl)propanoic-3,3-d2 acid], for which the “Lp(a) Inhibition Rate” value is recorded as 83%. Regarding `[2H]C([2H])(c1cccc(C[C@H](C(=O)O)[C@H]2CCNC2)c1)N(CCOc1cccc(C[C@H](C(=O)O)[C@H]2CCNC2)c1)C(=O)Cc1cccc(C[C@H](C(=O)O)[C@H]2CCNC2)c1` [Compound 193, (S)-3-(3-(2-((2-(3-((S)-2-carboxy-2-((R)-pyrrolidin-3-yl)ethyl)phenoxy)ethyl)((3-((S)-2-carboxy-2-((R)-pyrrolidin-3-yl)ethyl)phenyl)methyl-d2)amino)-2-oxoethyl)phenyl)-2-((R)-pyrrolidin-3-yl)propanoic acid], the “Lp(a) Inhibition Rate” value is 88%.

For a further experiment, the target named is Lp(a) assembly in HepG2 cells overexpressing ApoA protein (Homo sapiens (Human), UniProt P08519). Nature of the experiment: ELISA assay on screening Lp(a) assembly inhibition. It counts as cell-based. As to conditions: HepG2 cells overexpressing ApoA protein, 24 h, ELISA of supernatant. The essentials:
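HepG2 cells overexpressing ApoA treated with diluted compounds for 24 h at 37 °C, 5% CO2; EACA (10 μL of 1.5 M) added before harvesting supernatant. Secreted Lp(a) quantified by sandwich ELISA; IC50 from four-parameter Hill fit of % inhibition versus concentration.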
On the technique in general: In an ELISA, binding on a coated surface is turned into a signal by an enzyme label.
For `O=C(O)[C@@H](Cc1cccc(CC(=O)N(CCNc2cccc(C[C@H](C(=O)O)[C@H]3CCNC3)c2)Cc2cccc(C[C@H](C(=O)O)[C@H]3CCNC3)c2)c1)[C@H]1CCNC1` [Compound 146, (S)-3-(3-(2-((3-((S)-2-carboxy-2-((R)-pyrrolidin-3-yl)ethyl)benzyl)(2-((3-((S)-2-carboxy-2-((R)-pyrrolidin-3-yl)ethyl)phenyl)amino)ethyl)amino)-2-oxoethyl)phenyl)-2-((R)-pyrrolidin-3-yl)propanoic acid], the IC50 was 0.93 nM. `O=C(O)[C@@H](Cc1cccc(CCC(=O)N(CCNc2cccc(C[C@H](C(=O)O)[C@H]3CCNC3)c2)Cc2cccc(C[C@H](C(=O)O)[C@H]3CCNC3)c2)c1)[C@H]1CCNC1` [Compound 147, (S)-3-(3-(3-((3-((S)-2-carboxy-2-((R)-pyrrolidin-3-yl)ethyl)benzyl)(2-((3-((S)-2-carboxy-2-((R)-pyrrolidin-3-yl)ethyl)phenyl)amino)ethyl)amino)-3-oxopropyl)phenyl)-2-((R)-pyrrolidin-3-yl)propanoic acid] came in with an IC50 of 0.86 nM. As to `O=C(O)[C@@H](Cc1cccc(CCC(=O)N(CCOc2cccc(C[C@H](C(=O)O)[C@H]3CCNC3)c2)CCOc2cccc(C[C@H](C(=O)O)[C@H]3CCNC3)c2)c1)[C@H]1CCNC1` [Compound 148, (2S,2′S)-3,3′-(((((3-(3-((S)-2-carboxy-2-((R)-pyrrolidin-3-yl)ethyl)phenyl)propanoyl)azanediyl)bis(ethane-2,1-diyl))bis(oxy))bis(3,1-phenylene))bis(2-((R)-pyrrolidin-3-yl)propanoic acid)], the midpoint of inhibition, the IC50, lay at 1.5 nM.

`O=C(O)[C@@H](Cc1cccc(OCc2cc(COc3cccc(C[C@H](C(=O)O)[C@H]4CCNC4)c3)cc(COc3cccc(C[C@H](C(=O)O)[C@H]4CCNC4)c3)c2)c1)[C@H]1CCNC1` [Compound 149, (2S,2′S,2″S)-3,3′,3″-(((benzene-1,3,5-triyltris(methylene))tris(oxy))tris(benzene-3,1-diyl))tris(2-((R)-pyrrolidin-3-yl)propanoic acid)] registered an IC50 of 2.53 nM. Turning to `O=C(O)[C@@H](Cc1cncc(CC(=O)N(CCOc2cncc(C[C@H](C(=O)O)[C@H]3CCNC3)c2)Cc2cncc(C[C@H](C(=O)O)[C@H]3CCNC3)c2)c1)[C@H]1CCNC1` [Compound 153, (S)-3-(5-(2-(2-(5-((S)-2-carboxy-2-((R)-pyrrolidin-3-yl)ethyl)pyridin-3-yl)-N-((5-((S)-2-carboxy-2-((R)-pyrrolidin-3-yl)ethyl)pyridin-3-yl)methyl)acetamido)ethoxy)pyridin-3-yl)-2-((R)-pyrrolidin-3-yl)propanoic acid], half-maximal inhibition (IC50) required 2.91 nM. In turn, `O=C(O)[C@@H](Cc1cccc(CC(=O)N(CCSc2cccc(C[C@H](C(=O)O)[C@H]3CCNC3)c2)Cc2cccc(C[C@H](C(=O)O)[C@H]3CCNC3)c2)c1)[C@H]1CCNC1` [Compound 158, (S)-3-(3-(2-((3-((S)-2-carboxy-2-((R)-pyrrolidin-3-yl)ethyl)benzyl)(2-((3-((S)-2-carboxy-2-((R)-pyrrolidin-3-yl)ethyl)phenyl)thio)ethyl)amino)-2-oxoethyl)phenyl)-2-((R)-pyrrolidin-3-yl)propanoic acid] gave an IC50 of 1.65 nM. `O=C(O)[C@@H](Cc1cccc(CC(=O)N(CCOc2cccc(C[C@H](C(=O)O)[C@@H]3CCNC3)c2)Cc2cccc(C[C@H](C(=O)O)[C@@H]3CCNC3)c2)c1)[C@@H]1CCNC1` [Compound 210, (S)-3-(3-(2-((3-((S)-2-carboxy-2-((S)-pyrrolidin-3-yl)ethyl)benzyl)(2-(3-((S)-2-carboxy-2-((S)-pyrrolidin-3-yl)ethyl)phenoxy)ethyl)amino)-2-oxoethyl)phenyl)-2-((S)-pyrrolidin-3-yl)propanoic acid]: the IC50 stood at 1.52 nM.

(Values after patent US20250179055A1, “Substituted 2-(pyrrolidine-3-yl)acetic acid derivative, preparation method and use thereof” (INNOVSTONE THERAPEUTICS LIMITED, priority 2023, published 2025).)
